Measured values from paper PMC12921516 (ACS Bio & Med Chem Au, 2025).

Key:
HepG2 cells = assay: Western blotting, HepG2 normal model; assay type: cell-based, human; conditions: 24 h
Experimental: (§1) HepG2 cells were obtained directly from ATCC (HB-8065) and cultured in DMEM with low glucose, supplemented with fetal bovine serum, 100 U/mL penicillin G, and […] streptomycin. The media was freshly prepared and sterilized by filtration. Cells were maintained with a maximum of 10 passages before being discarded. For cell counting, the cells were washed twice with phosphate-buffered saline (PBS), trypsinized, and counted using a Neubauer chamber. For the insulin-resistant model, 75,000 cells per well were seeded in 6-well plates at 37 °C in 5% CO2 and cultured for 72 h. Subsequently, insulin (0.1 μM) was added to induce insulin resistance for 24 h. After this period, inhibitors were incubated for 24 h, followed by a final 30 min insulin stimulation (0.1 μM) before protein extraction. For the normal model, 75,000 cells per well were seeded in 6-well plates at 37 °C in 5% CO2 and cultured for 96 h. After that, the cells were incubated with the inhibitors for 24 h, followed by protein extraction.
(§2) Treated cells were washed twice with 1 mL of PBS, and proteins were extracted using 300 μL of a buffer solution containing 10% sodium deoxycholate in 10% TEAB, supplemented with a protease and phosphatase inhibitor cocktail. The extracts were heated at 80 °C for 5 min and dissociated by repeated passages through an insulin syringe. The cell extracts were centrifuged at 15,000 rpm for 15 min at 4 °C, and the supernatant was collected. Protein quantification was performed using the bicinchoninic acid assay, and aliquots were prepared for Western blotting. SDS-PAGE was conducted, and proteins were transferred onto a nitrocellulose membrane. The membrane was blocked with 10% skim milk in TBST for 1 h and incubated overnight with primary antibodies (1:400 dilution). Secondary antibodies conjugated to horseradish peroxidase were diluted 1:2,000, and the membranes were incubated for 1 h at room temperature. Blots were visualized using the ChemiDoc MP (Bio-Rad), and densitometric analysis was performed with ImageJ (U.S. National Institutes of Health). Statistical analyses were conducted using GraphPad Prism 8.0.
compounds at 24 h of treatment. β-actin was employed as loading control. b) Densitometric analysis of western blot images
employing ImageJ analysis software. Bar graphs represent the mean ± SEM of normalized values. The control levels were set to
1. Asterisks indicate statistical significance according to the Dunn test. p* < 0.05
(§3) (1 picture or pasted object on this page, not shown here)

[1] = tested on: insulin-resistant HepG2 cells; assay: Western blotting, insulin-resistant HepG2 model; assay type: cell-based, human; conditions: 24 h
Experimental: as §1, §2
resistance model in HepG2 cells . a) Western blotting representative analysis (n=3) of PTP1B, p -AKT, p-IRS1 and p-STAT3 levels
of HepG2 cells treated with the compounds at 24 h of treatment. β-actin was employed as loading control. b) Densitometric
analysis of western blot images employing ImageJ analysis software. Bar graphs represent the mean ± SEM of normalized values.
The control levels were set to 1. Asterisks indicate statistical significance according to the Dunn test. p* < 0.05.
as §3

| Compound | p-STAT3 levels (HepG2 cells) | p-IRS levels (HepG2 cells) | p-IRS levels [1] |
| --- | --- | --- | --- |
| CC1(C)c2[nH]c3ccc(OC(F)F)cc3c2C[C@]2(C)[C@H]3C(=O)C=C4[C@@H]5C[C@@](C)(C(=O)O)CC[C@]5(C)CC[C@@]4(C)[C@]3(C)CC[C@@H]12 [compound 4b, (20β)-5′-(Difluoromethoxy)-11-oxo-1′H-oleana-2,12-dieno[3,2-b]indol-29-oic Acid] | only a minor increase | – | – |
| CC1(C)c2[nH]c3ccc(S(N)(=O)=O)cc3c2C[C@]2(C)[C@H]3C(=O)C=C4[C@@H]5C[C@@](C)(C(=O)O)CC[C@]5(C)CC[C@@]4(C)[C@]3(C)CC[C@@H]12 [compound 4g, (20β)-5′-Sulfamoyl-11-oxo-1′H-oleana-2,12-dieno[3,2-b]indol-29-oic Acid] | slight but not statistically significant increase | slight but not statistically significant increase | – |
| CC1(C)c2c(cnn2-c2ccc(S(N)(=O)=O)cc2)C[C@]2(C)[C@H]3C(=O)C=C4[C@@H]5C[C@@](C)(C(=O)O)CC[C@]5(C)CC[C@@]4(C)[C@]3(C)CC[C@@H]12 [compound 5g, (20β)-11-Oxo-2′-(4-sulfamoylphenyl)-2′H-oleana-2,12-dieno[3,2-c]pyrazol-29-oic Acid] | – | – | tendency to increase p-IRS levels |
